Here are results for 54 compounds from ChEMBL document CHEMBL5260813, “An overview on the recent developments of 1,2,4-triazine derivatives as anticancer compounds” (Eur J Med Chem, 2017).

In one assay the test system is HepG2. The experiment in a line: Antiproliferative activity against human HepG2 cells assessed as cell growth inhibition. It is filed as functional, cell-based.
In assay [1] the test system is MCF7. Briefly: Antiproliferative activity against human MCF7 cells assessed as inhibition of cell growth. It counts as functional, cell-based.
The test system of another assay is HCT-116. Briefly: Antiproliferative activity against human HCT-116 cells assessed as inhibition of cell growth. It counts as functional, cell-based.
The test system of assay [2] is MCF7. The experiment in a line: Cytotoxicity against human MCF7 cells assessed as inhibition of cell growth incubated for 72 hrs by MTT assay. It counts as functional, cell-based. To be noted: MCF7, 72 h.
Another assay deals with HL-60. Briefly: Antiproliferative activity against human HL-60 cells assessed as inhibition of cell growth incubated for 72 hrs by MTT assay. As to conditions: HL-60, 72 h. It counts as functional, cell-based.
A further assay relates to MOLT-4. Briefly: Antiproliferative activity against human MOLT-4 cells assessed as inhibition of cell growth incubated for 72 hrs by MTT assay. It counts as functional, cell-based. To be noted: MOLT-4, 72 h. (In general: Tetrazolium assays rely on reduction of a dye to a coloured formazan, in cell work by metabolically active cells.)
The target of assay [3] is T1, Tyrosine-protein kinase SYK (Homo sapiens, UniProt P43405). The experiment in a line: Inhibition of human SYK using 5-Fluo-Ahx-GAPDYENLQELNKK-Amid as substrate in presence of ATP by microfluidic mobility shift assay.
Assay [4] deals with T1, Tyrosine-protein kinase SYK. Briefly: Inhibition of SYK in human Ramos cells assessed as reduction in anti IgM-induced phosphorylation of BLNK by flow cytometry assay. It counts as cell-based. In general terms: Flow cytometry measures light scatter and fluorescence of single cells or particles in a stream.
Assay [5] concerns the target Cyclin-dependent kinase 2/cyclin E1 (Homo sapiens, UniProt P24941). The experiment in a line: Inhibition of CDK2/cyclin E1 (unknown origin) expressed in Sf9 cells.
The next assay concerns BT-474. The experiment in a line: Antiproliferative activity against human BT-474 cells assessed as inhibition of cell growth. It is filed as functional, cell-based.
Assay [6] has as its system HT-29. The experiment in a line: Antiproliferative activity against human HT-29 cells assessed as inhibition of cell growth by SRB assay. It is filed as functional, cell-based. (In general: Sulforhodamine B stains cellular protein and so reports cell mass.)
Assay [7] relates to HT-29. The experiment in a line: Potency index, ratio of tirapazamine IC50 to compound IC50 for antiproliferative activity against human HT-29 cells. It counts as functional.
For assay [8], the target named is Epidermal growth factor receptor (Homo sapiens, UniProt P00533). Briefly: Inhibition of EGFR (unknown origin).
The target of assay [9] is Vascular endothelial growth factor receptor 2 (Homo sapiens, UniProt P35968). The experiment in a line: Inhibition of VEGFR-2 (unknown origin).
The test system of another assay is OVCAR-4. Briefly: Antiproliferative activity against human OVCAR-4 cells assessed as cell growth inhibition. It counts as functional, cell-based.

Bounds are passed on as bounds.

Sequence of Epidermal growth factor receptor (P00533 whole entry): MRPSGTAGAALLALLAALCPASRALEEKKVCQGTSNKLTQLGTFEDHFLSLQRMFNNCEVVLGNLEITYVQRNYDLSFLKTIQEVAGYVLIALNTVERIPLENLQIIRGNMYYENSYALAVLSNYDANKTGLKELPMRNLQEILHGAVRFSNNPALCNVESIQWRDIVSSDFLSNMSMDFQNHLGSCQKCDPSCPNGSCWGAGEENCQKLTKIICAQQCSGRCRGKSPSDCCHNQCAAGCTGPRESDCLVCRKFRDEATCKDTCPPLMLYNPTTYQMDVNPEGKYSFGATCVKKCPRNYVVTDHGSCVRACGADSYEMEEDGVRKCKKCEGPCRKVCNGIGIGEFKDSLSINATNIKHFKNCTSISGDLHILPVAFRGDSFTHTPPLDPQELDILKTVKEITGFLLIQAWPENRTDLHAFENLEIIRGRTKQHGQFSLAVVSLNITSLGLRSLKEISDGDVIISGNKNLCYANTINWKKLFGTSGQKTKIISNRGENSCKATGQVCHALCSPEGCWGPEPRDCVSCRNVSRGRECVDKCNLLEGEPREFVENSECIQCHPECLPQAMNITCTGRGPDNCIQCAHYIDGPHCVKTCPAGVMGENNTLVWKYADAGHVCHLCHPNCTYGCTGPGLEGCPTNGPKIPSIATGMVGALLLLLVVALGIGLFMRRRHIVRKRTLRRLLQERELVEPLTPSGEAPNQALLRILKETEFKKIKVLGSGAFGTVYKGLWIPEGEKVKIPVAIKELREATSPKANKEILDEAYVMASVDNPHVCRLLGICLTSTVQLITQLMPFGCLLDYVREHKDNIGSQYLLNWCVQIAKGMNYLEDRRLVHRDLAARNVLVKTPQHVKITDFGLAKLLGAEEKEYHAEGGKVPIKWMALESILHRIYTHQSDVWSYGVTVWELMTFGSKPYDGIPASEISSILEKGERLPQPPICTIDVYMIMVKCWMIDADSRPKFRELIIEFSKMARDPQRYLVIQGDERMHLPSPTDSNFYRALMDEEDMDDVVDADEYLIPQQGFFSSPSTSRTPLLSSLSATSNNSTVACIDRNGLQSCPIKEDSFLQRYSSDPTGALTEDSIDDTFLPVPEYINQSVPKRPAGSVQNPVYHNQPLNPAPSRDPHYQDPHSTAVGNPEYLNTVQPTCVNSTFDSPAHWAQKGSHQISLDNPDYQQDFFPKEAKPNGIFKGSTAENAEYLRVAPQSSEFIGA
Sequence of Vascular endothelial growth factor receptor 2 (P35968 whole entry): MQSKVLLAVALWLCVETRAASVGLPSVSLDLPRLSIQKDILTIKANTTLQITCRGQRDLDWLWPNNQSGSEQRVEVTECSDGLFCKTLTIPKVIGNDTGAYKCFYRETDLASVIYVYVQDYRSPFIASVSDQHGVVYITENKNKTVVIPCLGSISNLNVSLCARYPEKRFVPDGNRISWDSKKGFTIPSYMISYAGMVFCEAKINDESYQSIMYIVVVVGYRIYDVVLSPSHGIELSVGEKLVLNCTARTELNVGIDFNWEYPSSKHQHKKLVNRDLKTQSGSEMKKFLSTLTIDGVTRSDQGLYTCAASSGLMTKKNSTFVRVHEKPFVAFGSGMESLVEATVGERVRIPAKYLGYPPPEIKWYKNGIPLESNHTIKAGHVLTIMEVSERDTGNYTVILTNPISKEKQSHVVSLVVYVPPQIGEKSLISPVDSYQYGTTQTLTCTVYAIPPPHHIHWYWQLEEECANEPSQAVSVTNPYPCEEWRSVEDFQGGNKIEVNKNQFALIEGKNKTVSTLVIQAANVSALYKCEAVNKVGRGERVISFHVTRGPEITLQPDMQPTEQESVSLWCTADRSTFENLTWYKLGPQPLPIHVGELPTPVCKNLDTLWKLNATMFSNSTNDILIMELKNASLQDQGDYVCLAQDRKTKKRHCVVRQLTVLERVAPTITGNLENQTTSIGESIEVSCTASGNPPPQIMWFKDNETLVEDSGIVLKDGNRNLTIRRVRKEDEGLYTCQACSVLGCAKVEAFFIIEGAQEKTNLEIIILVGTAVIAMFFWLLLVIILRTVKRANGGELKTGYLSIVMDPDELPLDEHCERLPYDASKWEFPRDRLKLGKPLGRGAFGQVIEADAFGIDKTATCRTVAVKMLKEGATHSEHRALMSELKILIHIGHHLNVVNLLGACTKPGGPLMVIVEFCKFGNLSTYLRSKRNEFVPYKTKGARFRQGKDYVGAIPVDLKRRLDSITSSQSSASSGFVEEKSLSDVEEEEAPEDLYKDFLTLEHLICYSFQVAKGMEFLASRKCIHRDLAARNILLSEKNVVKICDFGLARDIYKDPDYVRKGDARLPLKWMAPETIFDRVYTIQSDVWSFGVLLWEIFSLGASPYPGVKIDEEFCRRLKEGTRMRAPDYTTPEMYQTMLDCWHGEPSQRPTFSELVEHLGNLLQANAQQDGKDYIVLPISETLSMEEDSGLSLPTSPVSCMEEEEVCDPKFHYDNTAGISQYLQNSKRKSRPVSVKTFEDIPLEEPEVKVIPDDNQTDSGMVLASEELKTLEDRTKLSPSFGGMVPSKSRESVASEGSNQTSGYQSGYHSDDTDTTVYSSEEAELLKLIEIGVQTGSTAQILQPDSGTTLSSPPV

As usually defined, the IC50 is the concentration at which inhibition is half-maximal. With `O=c1c(/C=C/c2cccs2)nnc(S)n1/N=C/c1ccccc1`, the IC50 in the assay on HepG2, in the assay with MCF7 [1] and in the assay with HCT-116 was 8.79 µM in each case.

Take `Clc1ccc(CSc2nnc3c(n2)-c2cccc4cccc-3c24)cc1`: the IC50 in the assay on MCF7 [2], with HL-60 and in the assay on MOLT-4 was 30 µM each time.

In the case of `CCSc1nnc2c(n1)-c1cccc3cccc-2c13`, the IC50 in the assay with MCF7 [2], in the assay with HL-60 and in the assay on MOLT-4 was 30 µM in each case.

Regarding `O=c1c(/C=C/c2cccs2)nnc(S)n1NC(=S)Nc1ccccc1`, the IC50 in the assay with HepG2, with MCF7 [1] and in the assay on HCT-116 was 8.79 µM throughout.

Take `NC(=O)c1nnc(N[C@@H]2CCCC[C@@H]2N)nc1Nc1cc(F)cc2cc[nH]c12`: the IC50 in assay [3] was determined as 0.0008 µM; in [4] it was 0.014 µM.

Take `Oc1ccc(-n2nc(-c3cc(O)c(O)c(O)c3)c3nc(-c4ccc(Cl)cc4)nnc32)cc1`: the IC50 in assay [5] was greater than 20 µM.

On to `CCn1nc(-c2cccs2)nc2c(=O)n(C)c(=O)nc1-2`, for which the IC50 in the assay with BT-474 was 0.9 µM.

For `Oc1cccc(-n2nc(-c3cc(O)c(O)c(O)c3)c3nc(-c4ccccc4)nnc32)c1`, in assay [5], it took 5.2 µM to reach half-maximal inhibition (IC50).

For the compound `Cn1ncc2c(Nc3nc(N[C@@H]4CCCC[C@@H]4N)nnc3C(N)=O)cccc21`, the values for the IC50 in assay [3] and in assay [4] were 0.0008 µM and 0.014 µM, respectively.

Regarding `Nc1nc2ccccc2[n+]([O-])n1`, the IC50 with HT-29 [6] is greater than 0.5 µM. Besides, the “Ratio IC50” value in the assay on HT-29 [7] was found to be 2.

In [5], `Oc1cc(-c2nn(-c3ccc(Cl)cc3)c3nnc(-c4ccc(Cl)cc4)nc23)cc(O)c1O` returned an IC50 greater than 20 µM.

Turning to `O=c1c(/C=C/c2cccs2)nnc(S)n1/N=C/c1cccs1`, the IC50 with HepG2, with MCF7 [1] and with HCT-116 was 8.79 µM each time.

Turning to `Clc1ccc(CSc2nnc3c(n2)-c2cccc4cccc-3c24)c(Cl)c1`, the IC50 in the assay on MCF7 [2], in the assay with HL-60 and in the assay on MOLT-4 was 30 µM each time.

For the compound `Cc1cc2c(Nc3ccc(C)c(O)c3)ncnn2c1`, the IC50 in assay [8] is 0.405 µM; in assay [9] it was 0.654 µM.

In the case of `O=C1CN2C(=O)/C(=C/c3ccc([N+](=O)[O-])cc3)N=C(c3ccccc3)N2C(=S)N1`, the IC50 in the assay on HepG2 came to 2.67 µM.

`CCOC(=O)c1nnc2c(C#N)c(-c3ccccc3)c(C)n2c1N`: the IC50 in the assay with OVCAR-4 was found to be 2.77 µM.

Regarding `Cc1ccc(Nc2ncnn3cccc23)cc1O`, the IC50 in assay [8] worked out at 1.44 µM; in assay [9], 0.51 µM.

As to `N#CCNc1nc2ccccc2[n+]([O-])n1`, the IC50 in the assay with HT-29 [6] is greater than 0.3 µM. Besides, the “Ratio IC50” value in the assay with HT-29 [7] was determined as 1.9.

Turning to `CC(=O)Nn1c(S)nnc(/C=C/c2cccs2)c1=O`, the IC50 with HepG2, with MCF7 [1] and with HCT-116 was 8.79 µM throughout.

Take `NC(=O)c1nnc(N[C@@H]2CCCC[C@@H]2N)nc1Nc1cccc2c(Cl)c[nH]c12`: the IC50 in assay [3] is 0.0008 µM; in assay [4], 0.014 µM.

Consider `Nn1c(SC2Sc3nnc(/C=C/c4cccs4)c(=O)n3NC2=O)nnc(/C=C/c2cccs2)c1=O` (stereo not drawn), for which the IC50 in the assay with HepG2, with MCF7 [1] and in the assay with HCT-116 was 8.79 µM throughout.

Compound `COc1cc(-c2nnc3c(n2)c(-c2cc(O)c(O)c(O)c2)nn3-c2cc(OC)c(OC)c(OC)c2)cc(OC)c1OC` registered an IC50 in assay [5] of 4.5 µM.

In [5], `Oc1ccc(-n2nc(-c3cc(O)c(O)c(O)c3)c3nc(-c4ccccc4)nnc32)cc1` displayed an IC50 of 14.1 µM.

In the case of `CCc1nc2ccccc2[n+]([O-])n1`, in the assay on HT-29 [6], the concentration for half-maximal inhibition (IC50) was greater than 3 µM. The “Ratio IC50” value with HT-29 [7] came out at 1.3.

In [9], `Cc1ccc(Nc2ncnn3c(C)ccc23)cc1O` came in with an IC50 of 29.4 µM.

With `Oc1ccccc1-n1nc(-c2cc(O)c(O)c(O)c2)c2nc(-c3ccccc3)nnc21`, the IC50 in [5] was found to be 15.1 µM.

Regarding `Clc1ccc(CSc2nnc3c(n2)-c2cccc4cccc-3c24)cc1Cl`, the IC50 with MCF7 [2], in the assay with HL-60 and in the assay on MOLT-4 was 30 µM throughout.

Take `Cc1ccc(Nc2ncnn3cc(C)c(C)c23)cc1O`: the IC50 stood at 0.023 µM in assay [8] and 0.2 µM in assay [9].

`Cc1c(-c2ccccc2)c(C#N)c2nnc(C#N)c(N)n12`: in the assay with OVCAR-4, the IC50 was 2.77 µM.

In [5], `Oc1ccccc1-n1nc(-c2cc(O)c(O)c(O)c2)c2nc(-c3ccc(Cl)cc3)nnc21` yielded an IC50 greater than 20 µM.

Turning to `CSc1nnc2c(n1)-c1cccc3cccc-2c13`, the IC50 with MCF7 [2], in the assay on HL-60 and in the assay on MOLT-4 was 30 µM each time.

Take `Cc1c(C#N)c2nnc(C#N)c(N)n2c1-c1ccccc1`: the IC50 with OVCAR-4 was 2.77 µM.

As to `CN(C)CCCNc1nc2ccccc2[n+]([O-])n1`, the IC50 in the assay on HT-29 [6] was determined as 0.83 µM. The “Ratio IC50” value in the assay with HT-29 [7] is recorded as 1.2.

`Cc1c[nH]c2c(Nc3nc(N[C@@H]4CCCC[C@@H]4N)nnc3C(N)=O)cc(F)cc12`: the IC50 in [4] worked out at 0.014 µM.

`Cn1nc(-c2ccccc2)nc2c(=O)n(C)c(=O)nc1-2`: in the assay with BT-474, the IC50 stood at 0.9 µM.

Take `NC(=O)c1nnc(N[C@@H]2CCCC[C@@H]2N)nc1Nc1cccc2[nH]ncc12`: the IC50 in assay [3] came out at 0.0008 µM; in assay [4], 0.014 µM.

As for `Cc1nc2c(=O)n(C)c(=O)nc-2n(C)n1`, the IC50 in the assay with BT-474 worked out at 0.9 µM.

Consider `c1ccc(CSc2nnc3c(n2)-c2cccc4cccc-3c24)cc1`, for which the IC50 with MCF7 [2], with HL-60 and with MOLT-4 was 30 µM each time.

As to `[O-][n+]1nc(CCO)nc2ccccc21`, the IC50 in the assay on HT-29 [6] was greater than 3 µM. For the same compound, in the assay on HT-29 [7], the “Ratio IC50” value came out at 1.2.

In the case of `N#Cc1c[nH]c2c(Nc3nc(N[C@@H]4CCCCC4N)nnc3C(N)=O)cccc12` (single isomer, unassigned), the IC50 in [3] amounted to 0.0008 µM; in [4], 0.014 µM.

With `Cc1ccc(Nc2ncnn3ccc(C)c23)cc1O`, the IC50 in [8] stood at 0.066 µM; in [9] it was 0.346 µM.

`Nn1c(S)nnc(/C=C/c2cccs2)c1=O`: the IC50 in the assay with HepG2, in the assay with MCF7 [1] and with HCT-116 was 8.79 µM each time.

For the compound `CCOC(=O)c1nnc2c(C#N)c(C)c(-c3ccccc3)n2c1N`, the IC50 in the assay on OVCAR-4 was 2.77 µM.

In the case of `O=[N+]([O-])c1ccccc1CSc1nnc2c(n1)-c1cccc3cccc-2c13`, the IC50 in the assay on MCF7 [2], with HL-60 and with MOLT-4 was 30 µM each time.

Consider `CCCc1nc2c(=O)n(C)c(=O)nc-2n(C)n1`, for which, in the assay with BT-474, the IC50 was found to be 0.9 µM.

`NC(=O)c1nnc(N[C@@H]2CCCC[C@@H]2N)nc1Nc1cccc2[nH]ccc12`: the IC50 in assay [3] was found to be 0.0008 µM.

Regarding `Cn1nc(Cc2ccccc2)nc2c(=O)n(C)c(=O)nc1-2`, the IC50 in the assay with BT-474 came to 0.9 µM.

As to `Cc1c(-c2ccccc2)c(C#N)c2nnc(C(N)=O)c(N)n12`, the IC50 in the assay with OVCAR-4 is 2.77 µM.

For the compound `Cc1c[nH]c2c(Nc3nc(N[C@@H]4CCCC[C@@H]4N)nnc3C(N)=O)cccc12`, the IC50 in assay [3] is 0.0008 µM; in [4], 0.014 µM.

In the case of `COc1nc2ccccc2[n+]([O-])n1`, in the assay with HT-29 [6], the IC50 is greater than 0.3 µM. The “Ratio IC50” value in the assay with HT-29 [7] was determined as 3.3.

For the compound `CNCCNc1nc2ccccc2[n+]([O-])n1`, in the assay with HT-29 [6], the IC50 worked out at 2.3 µM. In addition, the “Ratio IC50” value in the assay on HT-29 [7] came out at 6.11.

As to `CN(C)CCNc1nc2ccccc2[n+]([O-])n1`, the IC50 in the assay on HT-29 [6] was greater than 1 µM. Further, the “Ratio IC50” value in the assay on HT-29 [7] is reported as 3.9.

In the case of `CCn1nc(-c2ccccc2)nc2c(=O)n(C)c(=O)nc1-2`, the IC50 with BT-474 came out at 0.9 µM.

Consider `CC(=O)c1nnc2c(C#N)c(C)c(-c3ccccc3)n2c1C`, for which, in the assay on OVCAR-4, the IC50 was found to be 2.77 µM.
